# Source: US8329706B2, “Oxazolidinone derivatives” (Actelion Pharmaceuticals Ltd., priority 2009, dated 2012)
# Legend:
# [1] = molecular target: T1, human orexin-1 receptor (Homo sapiens, UniProt O43613); test: FLIPR intracellular calcium assay, orexin receptor antagonistic activity (OX1); type: cell-based; conditions: CHO cells expressing human orexin-1 receptor; agonist 3 nM orexin-A; normalized to on-plate reference; * geomean n = 5, *2 geomean n = 2
# T1 construct: expressed in transfected cells; host or cells: CHO cells (G418 selection)
# T1 sequence (O43613 1-425): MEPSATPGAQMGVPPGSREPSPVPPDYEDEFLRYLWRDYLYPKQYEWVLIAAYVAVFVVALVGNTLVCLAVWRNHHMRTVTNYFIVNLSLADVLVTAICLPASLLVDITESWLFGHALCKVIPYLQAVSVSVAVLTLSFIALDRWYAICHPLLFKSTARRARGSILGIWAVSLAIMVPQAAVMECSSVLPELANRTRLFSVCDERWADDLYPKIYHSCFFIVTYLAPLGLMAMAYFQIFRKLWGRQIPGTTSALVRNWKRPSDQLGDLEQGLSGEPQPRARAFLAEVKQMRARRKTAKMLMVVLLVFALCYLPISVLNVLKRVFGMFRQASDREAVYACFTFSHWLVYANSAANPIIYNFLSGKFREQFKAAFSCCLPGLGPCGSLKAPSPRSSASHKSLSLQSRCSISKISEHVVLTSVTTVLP
# Experimental: (§1) The orexin receptor antagonistic activity of the compounds of formula (I) is determined in accordance with the following experimental method.
# (§2) Chinese hamster ovary (CHO) cells expressing the human orexin-1 receptor and the human orexin-2 receptor, respectively, are grown in culture medium (Ham F-12 with L-Glutamine) containing 300 μg/ml G418, 100 U/ml penicillin, 100 μg/ml streptomycin and 10% heat inactivated fetal calf serum (FCS). The cells are seeded at 20′000 cells/well into 384-well black clear bottom sterile plates (Greiner). The seeded plates are incubated overnight at 37° C. in 5% CO2.
# (§3) Human orexin-A as an agonist is prepared as 1 mM stock solution in MeOH:water (1:1), diluted in HBSS containing 0.1% bovine serum albumin (BSA), NaHCO3: 0.375 g/l and 20 mM HEPES for use in the assay at a final concentration of 3 nM.
# (§4) Antagonists are prepared as 10 mM stock solution in DMSO, then diluted in 384-well plates using DMSO followed by a transfer of the dilutions into in HBSS containing 0.1% bovine serum albumin (BSA), NaHCO3: 0.375 g/l and 20 mM HEPES. On the day of the assay, 50 μl of staining buffer (HBSS containing 1% FCS, 20 mM HEPES, NaHCO3: 0.375 g/l, 5 mM probenecid (Sigma) and 3 μM of the fluorescent calcium indicator fluo-4 AM (1 mM stock solution in DMSO, containing 10% pluronic) is added to each well. The 384-well cell-plates are incubated for 50 min at 37° C. in 5% CO2 followed by equilibration at rt for 30-120 min before measurement.
# (§5) Within the Fluorescent Imaging Plate Reader (FLIPR Tetra, Molecular Devices), antagonists are added to the plate in a volume of 10 μl/well, incubated for 10 min and finally 10 μl/well of agonist is added. Fluorescence is measured for each well at 1 second intervals, and the height of each fluorescence peak is compared to the height of the fluorescence peak induced by 3 nM orexin-A with vehicle in place of antagonist. For each antagonist, the IC50 value (the concentration of compound needed to inhibit 50% of the agonistic response) is determined and normalized using the obtained IC50 value of a on-plate reference compound. Optimized conditions were achieved by adjustment of pipetting speed and cell splitting regime. The calculated IC50 values of the compounds may fluctuate depending on the daily cellular assay performance. Fluctuations of this kind are known to those skilled in the art.
# [2] = molecular target: T2, human orexin-2 receptor (Homo sapiens, UniProt O43614); test: FLIPR intracellular calcium assay, orexin receptor antagonistic activity (OX2); type: cell-based; conditions: CHO cells expressing human orexin-2 receptor; agonist 3 nM orexin-A; normalized to on-plate reference; * geomean n = 5, *2 geomean n = 2
# T2 construct: expressed in transfected cells; host or cells: CHO cells (G418 selection)
# T2 sequence (O43614 1-444): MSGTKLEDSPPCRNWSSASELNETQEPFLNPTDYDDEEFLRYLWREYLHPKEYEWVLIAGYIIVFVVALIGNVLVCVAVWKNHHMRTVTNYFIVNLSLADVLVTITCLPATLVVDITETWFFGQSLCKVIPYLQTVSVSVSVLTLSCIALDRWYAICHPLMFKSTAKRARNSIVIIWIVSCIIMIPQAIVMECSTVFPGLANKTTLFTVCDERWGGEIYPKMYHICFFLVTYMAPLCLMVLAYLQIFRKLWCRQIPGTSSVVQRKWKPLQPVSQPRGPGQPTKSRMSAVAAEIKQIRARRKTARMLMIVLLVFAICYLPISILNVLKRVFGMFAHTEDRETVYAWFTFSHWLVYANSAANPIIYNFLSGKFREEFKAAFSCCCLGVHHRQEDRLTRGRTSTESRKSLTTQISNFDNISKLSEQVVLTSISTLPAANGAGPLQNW
# Experimental: as §1, §2, §3, §4, §5
IC50 [1] [nM],IC50 [2] [nM],SMILES
120,298,"COc1cccc(OC)c1C1OC(C)(C)C(=O)N1Cc1ccc(SC(F)(F)F)cc1 (stereo not drawn) [Example 88, 2-(2,6-Dimethoxy-phenyl)-5,5-dimethyl-3-(4-trifluoromethylsulfanyl-benzyl)-oxazolidin-4-one]"
139,212,"COc1cccc(OC)c1C1OC(C)(C)C(=O)N1Cc1ccc(Oc2ccccc2)nc1 (stereo not drawn) [Example 89, 2-(2,6-Dimethoxy-phenyl)-5,5-dimethyl-3-(6-phenoxy-pyridin-3-ylmethyl)-oxazolidin-4-one]"
> 10000,290,"CCOc1ccccc1C1OCC(=O)N1Cc1cc(C(F)(F)F)ccc1F (stereo not drawn) [Example 13, 2-(2-Ethoxy-phenyl)-3-(2-fluoro-5-trifluoromethyl-benzyl)-oxazolidin-4-one]"
1490,376,"COc1cccc(OC)c1C1OCC(=O)N1Cc1ccc(Cl)cc1Cl (stereo not drawn) [Example 42, 3-(2,4-Dichloro-benzyl)-2-(2,6-dimethoxy-phenyl)-oxazolidin-4-one]"
920,88,"Cc1cccc(C)c1C1OC(C)(C)C(=O)N1Cc1ccc(OC(F)(F)F)c(Cl)c1 (stereo not drawn) [Example 81, 3-(3-Chloro-4-trifluoromethoxy-benzyl)-2-(2,6-dimethyl-phenyl)-5,5-dimethyl-oxazolidin-4-one]"
> 10000,225,"COc1cccc(OC)c1C1OCC(=O)N1Cc1ccccc1OC(F)(F)F (stereo not drawn) [Example 33, 2-(2,6-Dimethoxy-phenyl)-3-(2-trifluoromethoxy-benzyl)-oxazolidin-4-one]"
29,160,"COc1cccc(OC)c1C1OC(C)(C)C(=O)N1Cc1ccc(OC(F)(F)F)cc1 (stereo not drawn) [Example 61, 2-(2,6-Dimethoxy-phenyl)-5,5-dimethyl-3-(4-trifluoromethoxy-benzyl)-oxazolidin-4-one]"
10,120,"COc1cccc(OC(C)C)c1C1OC(C)(C)C(=O)N1Cc1ccc(Oc2ccccc2)cc1 (stereo not drawn) [Example 96, 2-(2-Isopropoxy-6-methoxy-phenyl)-5,5-dimethyl-3-(4-phenoxy-benzyl)-oxazolidin-4-one]"
830,864,"CCOc1ccc(CN2C(=O)[C@@H](C)O[C@@H]2c2c(OC)cccc2OC)cc1 [Example 79, 2-(2,6-Dimethoxy-phenyl)-3-(4-ethoxy-benzyl)-(r)-5-methyl-oxazolidin-4-one]"
150,1660,"COc1cccc(OC)c1C1OC(C)(C)C(=O)N1Cc1ccc2c(c1)OCO2 (stereo not drawn) [Example 71, 3-Benzo[1,3]dioxol-5-ylmethyl-2-(2,6-dimethoxy-phenyl)-5,5-dimethyl-oxazolidin-4-one]"
8790,26,"CCOc1ccccc1C1OCC(=O)N1Cc1ccc(OC(F)(F)F)c(Cl)c1 (stereo not drawn) [Example 18, 3-(3-Chloro-4-trifluoromethoxy-benzyl)-2-(2-ethoxy-phenyl)-oxazolidin-4-one]"
1710,81,"CCCOc1ccc(CN2C(=O)COC2c2c(OC)cccc2OC)cc1 (stereo not drawn) [Example 54, 2-(2,6-Dimethoxy-phenyl)-3-(4-propoxy-benzyl)-oxazolidin-4-one]"
726,41,"COc1cccc(OC)c1C1O[C@H](C)C(=O)N1Cc1ccc(OC(F)F)cc1 (stereo partly drawn) [Example 52, 3-(4-Difluoromethoxy-benzyl)-2-(2,6-dimethoxy-phenyl)-(R)-5-methyl-oxazolidin-4-one]"
187,928,"COc1cccc(OC)c1C1OC(C)(C)C(=O)N1Cc1ccc(OC(F)F)cc1 (stereo not drawn) [Example 69, 3-(4-Difluoromethoxy-benzyl)-2-(2,6-dimethoxy-phenyl)-5,5-dimethyl-oxazolidin-4-one]"
1210,95,"COc1cccc(OC)c1C1O[C@H](C)C(=O)N1Cc1ccc(OC(C)C)cc1 (stereo partly drawn) [Example 74, 2-(2,6-Dimethoxy-phenyl)-3-(4-isopropoxy-benzyl)-(R)-5-methyl-oxazolidin-4-one]"
> 10000,413,"COc1cccc(OC)c1C1OCC(=O)N1Cc1ccc(C(F)(F)F)cc1 (stereo not drawn) [Example 32, 2-(2,6-Dimethoxy-phenyl)-3-(4-trifluoromethyl-benzyl)-oxazolidin-4-one]"
25,62,"CCOc1cccc(OC)c1C1OC(C)(C)C(=O)N1Cc1ccc(Oc2ccccc2)cc1 (stereo not drawn) [Example 97, 2-(2-Ethoxy-6-methoxy-phenyl)-5,5-dimethyl-3-(4-phenoxy-benzyl)-oxazolidin-4-one]"
110,443,"COc1cccc(OC)c1C1OC(C)(C)C(=O)N1Cc1ccc(Oc2ccccn2)cc1 (stereo not drawn) [Example 91, 2-(2,6-Dimethoxy-phenyl)-5,5-dimethyl-3-[4-(pyridin-2-yloxy)-benzyl]-oxazolidin-4-one]"
336,110,"CC1(C)OC(c2c(F)cccc2F)N(Cc2ccc(OC(F)(F)F)c(Cl)c2)C1=O (stereo not drawn) [Example 82, 3-(3-Chloro-4-trifluoromethoxy-benzyl)-2-(2,6-difluoro-phenyl)-5,5-dimethyl-oxazolidin-4-one]"
220,25,"COc1cccc(OC)c1C1O[C@H](C)C(=O)N1Cc1ccc(Oc2ccccc2)cc1 (stereo partly drawn) [Example 51, 2-(2,6-Dimethoxy-phenyl)-(R)-5-methyl-3-(4-phenoxy-benzyl)-oxazolidin-4-one]"
28,58,"COc1cccc(OC)c1C1OC(C)(C)C(=O)N1Cc1ccc(Oc2ccccc2)cc1 (stereo not drawn) [Example 50, 2-(2,6-Dimethoxy-phenyl)-5,5-dimethyl-3-(4-phenoxy-benzyl)-oxazolidin-4-one]"
4040,590,"CCOc1ccccc1C1OCC(=O)N1Cc1cc(C(F)(F)F)ccc1Cl (stereo not drawn) [Example 12, 3-(2-Chloro-5-trifluoromethyl-benzyl)-2-(2-ethoxy-phenyl)-oxazolidin-4-one]"
> 10000,696,"CCOc1ccccc1C1OCC(=O)N1Cc1ccc(Cl)cc1 (stereo not drawn) [Example 21, 3-(4-Chloro-benzyl)-2-(2-ethoxy-phenyl)-oxazolidin-4-one]"
> 10000,696,"CCOc1ccccc1C1OCC(=O)N1Cc1ccc(Cl)c(Cl)c1 (stereo not drawn) [Example 29, 3-(3,4-Dichloro-benzyl)-2-(2-ethoxy-phenyl)-oxazolidin-4-one]"
1210,3060,"COc1cccc(OC)c1C1OC(C)(C)C(=O)N1Cc1ccc(Oc2cnccn2)cc1 (stereo not drawn) [Example 92, 2-(2,6-Dimethoxy-phenyl)-5,5-dimethyl-3-[4-(pyrazin-2-yloxy)-benzyl]-oxazolidin-4-one]"
65,1300,"COc1cccc(OC)c1C1OC(C)(C)C(=O)N1Cc1nc2ccccc2n1C (stereo not drawn) [Example 70, 2-(2,6-Dimethoxy-phenyl)-5,5-dimethyl-3-(1-methyl-1H-benzoimidazol-2-ylmethyl)-oxazolidin-4-one]"
1840,787,"CCOc1ccccc1C1OCC(=O)N1Cc1c(Cl)cccc1Cl (stereo not drawn) [Example 23, 3-(2,6-Dichloro-benzyl)-2-(2-ethoxy-phenyl)-oxazolidin-4-one]"
